In patent publication US20240180880A1, “METHODS OF USING EHMT2 INHIBITORS IN TREATING OR PREVENTING BLOOD DISORDERS” (Epizyme, Inc., priority 2017, published 2024):

System: Various cell lines
Assay: Pretreatment model (7+3 or 7+7) combination proliferation assay, cellular ATP luminescence, Loewe synergy
Assay type: cell-based
Settings: several cell lines
Procedure: Pretreatment model: Various cell lines were seeded in flasks at densities that ensured log-linear growth rates for the duration of the assay. […] Cultures were incubated in a humidified atmosphere of 5% CO2 at 37° C. for 4 days. On Day 4 cells were spun down, resuspended in fresh medium, counted and diluted to the original cell density in new flasks. […] Cells were then spun down on Day 7, re-suspended in fresh medium and plated to assay-ready 384 well plates with an automated multichannel dispenser. […] Compounds listed in Table 7 were dispensed with a HP-D300 nanoliter dispenser (Tecan, Mannedorf, Switzerland), with each plate containing 8 combination partners. Plates were then incubated for an additional three or seven days as noted in FIG. 1D to follow a 7+3 or 7+7 model (cell lines with slow growth characteristics were tested in a 7+7 model). Quantification of proliferation through measurement of cellular adenosine triphosphate (ATP) was performed via a luminescent cell viability assay and read on a plate reader with luminescence module. […]
Fa was calculated with the formula:
Fa=1−(Luminescence of test compound/Luminesence of untreated control)

CNc1cc(C)nc(Nc2ccc(OC)c(OCCCN3CCCC3)c2)n1 [Compound 205]
combination effect on proliferation (Loewe) (Compound 205 and ATRA (FIG. 1B)): synergy | combination effect on proliferation (Loewe) (Compound 205 and Venetoclax (FIG. 1C)): synergy
